Results reported in patent US20220267394A1, “COMPOUNDS FOR INDUCING TISSUE FORMATION AND USES THEREOF” (HISTIDE AG, priority 2015, published 2022).
Where no end group is shown, it is not given here.

Test system: hMSCs
Assay: Loss of stemness: STRO-1 expression by immunostaining
Assay type: cell-based, human
Method: The cells were first fixed for 20 min with 4% paraformaldehyde/PBS at 4° C. After fixation, the cells were permeabilized in PBS containing 1% Triton X-100 for 15 min. Runx2, Osterix, Stro-1, Vinculin, Phalloidin, Osteopontin, Sox2, Sox9 antibodies were visualized by treating the cells with 1% (v/v) specific monoclonal antibodies for 1 hour at 37° C. Then the samples were incubated with Alexa Fluor® 568 or 647 (F(ab′)2 fragment of IgG(H+L)) during 30 min at room temperature. The cell nuclei were counterstained in 20 ng/mL DAPI for 10 min at room temperature.
For this type of quantification the freeware image analysis ImageJ® software was used. The raw image was first converted to an 8-bit file, and then the unsharp mask feature was used (settings 1:0.2) to remove the image background (rolling ball radius 10). After smoothing, the resulting image, which appears similar to the original photomicrograph but with minimal background, was then converted to a binary image by setting a threshold. Threshold values were determined empirically by selecting a setting, which gave the most accurate binary image for a subset of randomly selected photomicrographs. The cell area was determined by manual delineation on raw fluorescent images. Total contact area and mean contact area per cell were calculated by “analyse particules” in ImageJ®. A minimum of 30 cells per condition were analyzed. Stro-1, CD-34+, and CD-105 expressions were determined using this procedure.
hMSCs were cultured on conventional cell culture plastic plates with or without the presence in the cell culture media of different GFR-binding compounds as described herein (SEQ ID NO: 50 to 88) in solution. […] This was probed by Stro-1 immunostaining after cell fixation as described in the Methods section. The quantification of Stro-1 positive contact numbers and areas was performed as described in the Methods section. A minimum of 30 cells per condition were analyzed. Stro-1 positive marrow cells are multipotential and capable of differentiating into multiple mesenchymal lineages including stromal cells with a phenotype resembling vascular smooth muscle cells that can support hematopoiesis, adipocytes, osteoblasts, and chondrocytes.
Using the method detailed in the description, the RMSD of 57 previously reported peptide sequences have been determined (Table 6) and correlated with the expression of STRO-1 in solution. […] One should note that it is commonly admitted that the expression of STRO-1 in a cell is indicative of a cell that is in a substantially non-differentiated state and the decrease of its expression of at least about 20% is indicative of a cell that has started a process of differentiation but which may not result in the differentiation of the cell. A decrease of more than 50% would be indicative of the presence of a significant shift towards a differentiated state. A decrease of more than 70% would be indicative of the presence of a very important shift towards a differentiated state. A sustained decrease (e.g. for at least 96 h) of more than 50% or 70% would be indicative of the presence of an even more important shift towards a differentiated state.
Likewise, using the method detailed in the description, the RMSD of 75 GFR-binding peptide sequence representatives of the invention have been determined (Table 8) and correlated with the expression of STRO-1. SEQ ID NO: 1 to 49 were tested in combination with a bioactive carrier as defined above in the Examples Section (i.e. titanium, ceramics, collagen, etc. . . . ), whereas SEQ ID NO: 2242 to 2267 were tested in solution.

[1] = Table 8, SEQ ID NO: 1 to 49 tested in combination with a bioactive carrier (titanium, ceramics, collagen, etc.)
[2] = Table 6, previously reported peptides in solution, 400 ng/mL
[3] = Table 8, SEQ ID NO: 2242 to 2267 tested in solution

24 (GTPGPPSSAPTQLSATSVLYYDDSSNVILRKHRMIVKS; GFR-binding peptide) [compound 24]
STRO-1 expression (%) [1]: 21%

29 (GTPGPKASSVPTELSPISTLYKDENEKVVLKYHYDMVVEGSGSR; not fully specified; ends and bridges not checked) [compound 29]
STRO-1 expression (%) [1]: 21%

44 (CAAPASSSVPARLSPISILYIDAANNVVYKQYEDMVVE; not fully specified; ends and bridges not checked) [compound 44]
STRO-1 expression (%) [1]: 27%

41 (CGIPEPSSVPEKMSSLSILFFDENKNVVLKVYPNM; not fully specified; ends and bridges not checked) [compound 41]
STRO-1 expression (%) [1]: 22%

2172 (PNYSVPAGNKPLSERE; Peptide reported in WO2013040142, SEQ ID NO:543064) [compound 2172]
STRO-1 expression (%) [2]: 95%

2195 (MALPQPRGSSLSKAPVVVAPCMALKRVNIRSIVFEVLKTMNQNCIHETPN; Peptide reported in US20130333061, SEQ ID NO:158498) [compound 2195]
STRO-1 expression (%) [2]: 82%

22 (WWFWGKVPKPSSAPTQLSAISTLYLDEYDKVVLKNYQNMVVR; not fully specified; ends and bridges not checked) [compound 22]
STRO-1 expression (%) [1]: 17%

2266 (RVPSTSSAPVKTSNITMQIMDNGRVLLLGEMSMIVEESGSL; GFR-binding peptide) [compound 2266]
STRO-1 expression (%) [3]: 22%

2182 (VPTELSPISLLYLDEFEKVTLKNYQDMVVDG; Peptide reported in US20120244575, SEQ ID NO:4324) [compound 2182]
STRO-1 expression (%) [2]: 87%

6 (CAVPKAXXAPTKLSATSVLYYDSSNNVVLRKHRNMVVK; GFR-binding peptide; MOD_RES (7), (8): Xaa is C or S) [compound 6]
STRO-1 expression (%) [1]: 26%

2191 (ANINKDRDNVPAATSSLSKAYNP; Peptide reported in WO2013040142, SEQ ID NO:2326359) [compound 2191]
STRO-1 expression (%) [2]: 92%

2208 (AETLHTLGLSAPVIESAISDAI; Peptide reported in WO2013040142, SEQ ID NO:629725) [compound 2208]
STRO-1 expression (%) [2]: 93%

2248 (VPTAAEPISMLYLDEYDKVVKFKYEAAAVS; GFR-binding peptide) [compound 2248]
STRO-1 expression (%) [3]: 26%

5 (CASASPXXVSQDLNAISVLYFIGKTPKILKKYRMIVKSXKXS; GFR-binding peptide; MOD_RES (7), (8), (39), (41): Xaa is C or S) [compound 5]
STRO-1 expression (%) [1]: 26%

2253 (VPQQQEPLTTLYYDEYDKVVEQLSNQQVKS; GFR-binding peptide) [compound 2253]
STRO-1 expression (%) [3]: 18%

26 (GTPGPASSAVSQELSAISMLYLGGGLKNYQDM; GFR-binding peptide) [compound 26]
STRO-1 expression (%) [1]: 22%

2242 (VPTAASAISILYLDAANNVVLKNYQAAVVE; GFR-binding peptide) [compound 2242]
STRO-1 expression (%) [3]: 17%

2190 (VHLLKPHAVPKACCAPTKLSATSVLYYDSSNNVILRKHRNMVVRACGCH; Peptide reported in US5688678, SEQ ID NO:8) [compound 2190]
STRO-1 expression (%) [2]: 88%

2183 (TPTVVSATSL; Peptide reported in US20150153356, SEQ ID NO:51419) [compound 2183]
STRO-1 expression (%) [2]: 98%

2176 (MQCRELVTQVTEEPISQTEDGEEQESTTTPRLKGQKKE; Peptide reported in US20070083334, SEQ ID NO:958173) [compound 2176]
STRO-1 expression (%) [2]: 85%

3 (CASASPSSVSQDLSAISTLYLIGKTPKILKNYQMIVKSSKSS; not fully specified; ends and bridges not checked) [compound 3]
STRO-1 expression (%) [1]: 18%

2186 (SVPAVCSATSATGPYSSVTVTSWPSIVATGGTT; Peptide reported in EP1687419, SEQ ID NO:42) [compound 2186]
STRO-1 expression (%) [2]: 92%
